# Results taken from the supplement of paper PMC11208160.
# Test: recombinant UMI read abundance after kanamycin selection (control-corrected) (log10(CPM+1)); higher = more efficient recombination; extreme values may be limits of the assay; sequences stand for … in AGTGCAGAGAAAATCGGCCAGTTTTCTCTGCCTGCAGTCCGCATGCCGTGGGACCCCTTGGGTTCTAACCTGTTGCCTAGATTTATGCAGCGGACTGCCTTTCTCCCAAAGTGATAAACCGG…AGGTTGGTTTCACT; site = the 11-nt donor
# How it was run: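 Pooled Escherichia coli screen of donor and donor-binding-loop pairs for the IS621 bridge recombinase. Each pair sits with a 12-nt UMI on a plasmid carrying a promoterless kanamycin gene. The library was co-electroporated with a target plasmid encoding a fixed target and T7-inducible recombinase, then plated with IPTG (0.07 mM) plus kanamycin, or unselected, each in two replicates. Recombinant UMIs were PCR-amplified across the donor–target junction and sequenced. Counts became CPM, averaged over replicates, scaled by control-derived factors and reported as log10(CPM+1).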
row,Sequence,recombinant UMI read abundance (log10)
1,CGATCATCATGGACCGGTTTTCCCGGTAATCCGTATTTGCT (site CGATCAGCTTG),0
2,CGATCATCATGGACCGGTTTTCCCGGTAATCCGTATTTGCT (site CGATCATCTAA),0
3,CGATCATCATGGACCGGTTTTCCCGGTAATCCGTATTTGCT (site CGATCATCTAC),0
4,CGATCATCATGGACCGGTTTTCCCGGTAATCCGTATTTGCT (site CGATCATCTAG),1.82
5,CGATCATCATGGACCGGTTTTCCCGGTAATCCGTATTTGCT (site CGATCATCTAT),0
6,CGATCATCATGGACCGGTTTTCCCGGTAATCCGTATTTGCT (site CGATCATCTCC),0.00455
7,CGATCATCATGGACCGGTTTTCCCGGTAATCCGTATTTGCT (site CGATCATCTCG),0
8,CGATCATCATGGACCGGTTTTCCCGGTAATCCGTATTTGCT (site CGATCATCTGG),0
9,CGATCATCATGGACCGGTTTTCCCGGTAATCCGTATTTGCT (site CGATCATCTGT),0
10,CGATCATCATGGACCGGTTTTCCCGGTAATCCGTATTTGCT (site CGATCATCTTA),0
11,CGATCATCATGGACCGGTTTTCCCGGTAATCCGTATTTGCT (site CGATCATCTTG),0
12,CGATCATCATGGACCGGTTTTCCCGGTAATCCGTATTTGCT (site CGATCCACTAG),0.00991
13,CGATCATCATGGACCGGTTTTCCCGGTAATCCGTATTTGCT (site CGATCCTCTAC),0.00344
14,CGATCATCATGGACCGGTTTTCCCGGTAATCCGTATTTGCT (site CGATCCTCTAG),0
15,CGATCATCATGGACCGGTTTTCCCGGTAATCCGTATTTGCT (site CGATCCTCTCG),0.00562
16,CGATCATCATGGACCGGTTTTCCCGGTAATCCGTATTTGCT (site CGATCGCCTAG),0.00385
17,CGATCATCATGGACCGGTTTTCCCGGTAATCCGTATTTGCT (site CGATCGTCTAG),0
18,CGATCATCATGGACCGGTTTTCCCGGTAATCCGTATTTGCT (site CGATCGTCTAT),0
19,CGATCATCATGGACCGGTTTTCCCGGTAATCCGTATTTGCT (site CGATCGTCTGG),0

row,Sequence,recombinant UMI read abundance (log10)
1,CGATCATCATGGACCGGTTTTCCCGGTAATCCGTATTTGCT (site CGATCTGCTAG),0
2,CGATCATCATGGACCGGTTTTCCCGGTAATCCGTATTTGCT (site CGATCTTCTAA),0
3,CGATCATCATGGACCGGTTTTCCCGGTAATCCGTATTTGCT (site CGATCTTCTAG),0
4,CGATCATCATGGACCGGTTTTCCCGGTAATCCGTATTTGCT (site CGATCTTCTTG),0
5,CGATCATCATGGACCGGTTTTCCCGGTAATCCGTATTTGCT (site CGATGACCTAG),0
6,CGATCATCATGGACCGGTTTTCCCGGTAATCCGTATTTGCT (site CGATGATCTAG),0
7,CGATCATCATGGACCGGTTTTCCCGGTAATCCGTATTTGCT (site CGATGATCTAT),0.00469
8,CGATCATCATGGACCGGTTTTCCCGGTAATCCGTATTTGCT (site CGATGATCTGG),0
9,CGATCATCATGGACCGGTTTTCCCGGTAATCCGTATTTGCT (site CGATGGTCTAG),0
10,CGATCATCATGGACCGGTTTTCCCGGTAATCCGTATTTGCT (site CGATTAGCTAG),0.0161
11,CGATCATCATGGACCGGTTTTCCCGGTAATCCGTATTTGCT (site CGATTATCTAA),0
12,CGATCATCATGGACCGGTTTTCCCGGTAATCCGTATTTGCT (site CGATTATCTAG),0
13,CGATCATCATGGACCGGTTTTCCCGGTAATCCGTATTTGCT (site CGATTATCTTG),0
14,CGATCATCATGGACCGGTTTTCCCGGTAATCCGTATTTGCT (site CGATTTTCTAG),0
15,CGATCATCATGGACCGGTTTTCCCGGTAATCCGTATTTGCT (site CGCCCATCTAG),0.133
16,CGATCATCATGGACCGGTTTTCCCGGTAATCCGTATTTGCT (site CGCTAATCTAG),0
17,CGATCATCATGGACCGGTTTTCCCGGTAATCCGTATTTGCT (site CGCTCAACTAG),0
18,CGATCATCATGGACCGGTTTTCCCGGTAATCCGTATTTGCT (site CGCTCATCTAC),0.00488
19,CGATCATCATGGACCGGTTTTCCCGGTAATCCGTATTTGCT (site CGCTCATCTAG),0.295

row,Sequence,recombinant UMI read abundance (log10)
1,CGATCATCATGGACCGGTTTTCCCGGTAATCCGTATTTGCT (site CGCTCATCTCG),0
2,CGATCATCATGGACCGGTTTTCCCGGTAATCCGTATTTGCT (site CGCTCCTCTAG),0
3,CGATCATCATGGACCGGTTTTCCCGGTAATCCGTATTTGCT (site CGGGCATCTAG),0
4,CGATCATCATGGACCGGTTTTCCCGGTAATCCGTATTTGCT (site CGGTCAGCTAG),0.0144
5,CGATCATCATGGACCGGTTTTCCCGGTAATCCGTATTTGCT (site CGGTCATCTAA),0.0171
6,CGATCATCATGGACCGGTTTTCCCGGTAATCCGTATTTGCT (site CGGTCATCTAG),0
7,CGATCATCATGGACCGGTTTTCCCGGTAATCCGTATTTGCT (site CGGTCATCTTG),0.00419
8,CGATCATCATGGACCGGTTTTCCCGGTAATCCGTATTTGCT (site CGGTCTTCTAG),0.0105
9,CGATCATCATGGACCGGTTTTCCCGGTAATCCGTATTTGCT (site CGGTTATCTAG),0
10,CGATCATCATGGACCGGTTTTCCCGGTAATCCGTATTTGCT (site CGTACATCTAG),1.61
11,CGATCATCATGGACCGGTTTTCCCGGTAATCCGTATTTGCT (site CGTTCACCTAG),0
12,CGATCATCATGGACCGGTTTTCCCGGTAATCCGTATTTGCT (site CGTTCATCTAG),1.53
13,CGATCATCATGGACCGGTTTTCCCGGTAATCCGTATTTGCT (site CGTTCATCTAT),0
14,CGATCATCATGGACCGGTTTTCCCGGTAATCCGTATTTGCT (site CGTTCATCTGG),0
15,CGATCATCATGGACCGGTTTTCCCGGTAATCCGTATTTGCT (site CGTTCGTCTAG),0.0117
16,CGATCATCATGGACCGGTTTTCCCGGTAATCCGTATTTGCT (site CGTTGATCTAG),0
17,CGATCATCATGGACCGGTTTTCCCGGTAATCCGTATTTGCT (site CTACCATCTAG),1.69
18,CGATCATCATGGACCGGTTTTCCCGGTAATCCGTATTTGCT (site CTATAATCTAG),1.08
19,CGATCATCATGGACCGGTTTTCCCGGTAATCCGTATTTGCT (site CTATCAACTAG),0
